Data on one molecule can be found in paper PMC9966268, “Genotoxicity of Novel Pyrazolo[4,3-e]tetrazolo[1,5-b][1,2,4]triazine Sulfonamides in Normal and Cancer Cells In Vitro” (International Journal of Molecular Sciences, 2023).

One data set in a line: Alamar blue assay. Type of data set: cell-based. Particulars: human, PC-3 cells, PC-3, 3 µM. As for the experimental part:
Alamar blue works as a non-toxic and membrane-permeable redox indicator that is often used to assess the metabolic activity of cells. Over the past 50 years, the alamar blue reagent has been used to measure cell viability and cytotoxicity in a variety of cell types. In this study, alamar blue (BioRAD) was used to assess cell viability before the performance of the neutral comet assay. Nunc microtiter, flat-bottomed 96-well plates were seeded at a density of approximately 1 × 10^4 cells per 100 µL medium per well. Following the given incubation period in controlled conditions (37 °C; 5% CO2), cells were exposed to 11 different concentrations of tested compounds in DMSO (range 0.05–3 µM) in a volume of 100 µL medium per well. The final solvent concentration was <0.5% v/v. The experimental design included negative controls and blanks (wells without cells).
Following a 24 h incubation period, 20 µL of alamar blue was added to each well of the experimental plate. Cells were incubated in a humidified atmosphere for 4 h (37 °C; 5% CO2). The absorbance reading was performed at 570 and 600 nm using a spectrophotometer (microplate reader Power Wave XS BioTek Instruments, Inc., USA). The experiments were performed in triplicate.
The percentage difference between treated and control cells was calculated using the formula provided by the producer (BioRad). (1) Percentage difference between treated and control cells=O2×A1 −O1×A2 /O2×P1−O1×P2×100
For orientation: The colour change of resazurin is a common sign of viable cells or microbes.

In a further data set the test system is WI-38. The data set can be described thus: Alkaline comet assay. Type of data set: cell-based, human. Particulars: WI-38, alkaline. As to the method:
(§1) The alkaline version of the comet assay was performed according to Singh et al. (1988), with modifications. BxPC-3 and PC-3 cancer cells and normal human fibroblasts (WI-38) were seeded at a density of 1.2 × 10^5/mL onto 12-well plates. […] The experimental design included negative controls (cells treated with DMSO at 0.4% for 24 h at 37 °C). Cells were left for incubation for another 24 h (37 °C; 5% CO2). After exposure, they were transferred to Eppendorf tubes and centrifuged at 1400 rpm for 10 min at 4 °C. Afterward, the supernatant was removed, and the precipitate was diluted in PBS. The next steps were performed as previously described by Kontek and Nowicka.
(§2) After electrophoresis (conditions: 12 V, 300 mA, 25 min), slides were stained with 1 µg/mL of the intercalating agent 4′,6-diamidino-2-phenylindole (DAPI) and coverslipped. DNA damage was assessed with a fluorescence microscope at 360 nm using CellSens (Olympus) software. A total number of approximately 50 cells per slide was chosen for further analysis.
(§3) […] This parameter provides a very clear picture of what the actual appearance of the comets was like. […] The data were presented with an interquartile range and minimal and maximal values using Graphpad Prism 7. Statistical analysis of comet assay results was performed using Statistica software. The Kruskal–Wallis test was used to show a statistically significant difference between groups. Multiple comparisons using mean ranks for all groups module of Statistica software were used. A p-value less than 0.05 was considered statistically significant. In all groups, N > 200.

The test system of data set [1] is PC-3. Put plainly: Alkaline comet assay. Type of data set: cell-based, human. Particulars: PC-3, alkaline, IC50 concentration, 24 h. As for the experimental part:
as §1, §2, §3

Data set [2] has as its system BxPC-3. Put plainly: Alkaline comet assay. Particulars: BxPC-3, alkaline, IC50 concentration, 24 h. Type of data set: cell-based, human. As for the experimental part:
as §1, §2, §3

Data set [3] concerns PC-3. The data set can be described thus: γH2AX staining. Type of data set: cell-based, human. Particulars: PC-3, IC50 concentration, 24 h, foci per cell. As for the experimental part:
PC-3 cells were seeded at a density of 3 × 10^4/mL onto round coverslips placed on the bottom of 12-well plates. […] After 24 h, cells were washed once with cold PBS and placed in 4% paraformaldehyde (PHA) in PBS for 10 min. at room temperature. After that, PHA was removed, and cells were permeabilized using 0.1% Triton X-100 for 10 min at 20 °C, followed by incubation in a blocking solution (1 mL/well) containing 2.5% BSA, 1.5% goat serum, and 0.1% Triton X-100 in PBS for 10 min at room temperature. The blocking solution was removed, and coverslips containing cells were incubated with anti-γ-H2AX primary antibodies in blocking solution (anti-gamma-H2AX (phosphor-Ser139) (Abcam, Cambridge, UK; 1:100)) for 1 h at room temperature. Cells were transferred into 12-well plates, washed twice in PBS (5 min each), transferred to plates, and incubated with Goat anti-Mouse IgG Cross-adsorbed antibody, Alexa Fluor 488 (Invitrogen; 1:500 in PBS) for 1 h at room temperature. Cells were washed twice in PBS, followed by incubation with DAPI solution (1 µg/mL) for 10 min at room temperature and two washes in PBS and distilled water. Coverslips were removed using tweezers and placed on microscope slides with a drop of Fluoromount-G mounting medium. The slides were placed flat at room temperature for 24 h and then stored at 4 °C. The slides were analyzed with a fluorescence microscope using CellSens (Olympus) software. A total number of approximately 100 cells per slide was chosen for further analysis. The experiment was performed in duplicate. In BxPC-3 cells, inefficient or non-specific staining was observed despite attempts to optimize the assay. Therefore, we discontinued further work on these cells with the assay.
Images for green γ-H2AX (Alexa Fluor 488) and blue nuclear signals (DAPI) were taken using an Olympus camera. ImageJ software “find maxima” and “count” functions were used to determine the number of γ-H2AX foci in each cell. The “preview point selection” option and “prominence” were chosen based on the accuracy of coverage of γ-H2AX foci. Data were analyzed using GraphPad Prism 7.0 software system (GraphPad Prism Software Inc., USA) and Statistica software. The Kruskal–Wallis test was used to show a statistically significant difference between groups. Multiple comparisons using mean ranks for all groups module of Statistica software were used. A p-value less than 0.05 was considered statistically significant (p < 0.05). In all groups, N > 200.

Data set [4] deals with BxPC-3. Further details: method as in PMID 35682571. Particulars: BxPC-3, 72 h incubation, MTT assay, mean; read-out: IC50 Value ± SD; cited from earlier work. Background: Tetrazolium dyes change colour on reduction, which living cells bring about.

As usually defined, the viability is the share of living cells, or the viability signal relative to a control. A high value points to less harm to the cells. The term IC50 denotes the point on the concentration scale where inhibition reaches its midpoint. On to `Cc1nn(-c2ccc(S(=O)(=O)NCCN3CCOCC3)cc2)c2nn3nnnc3nc12` [MM134], for which the viability at 24 h, 3 µM in the data set “Alamar blue assay” came to 55.8 ± 5.27%. Further, in the data set with WI-38 (0.5 × IC50, IC50, 2 × IC50, 24 h, p < 0.05), the “DNA damage compared with negative and positive control (in words)” value is reported as “statistically significant increase in DNA damage”. Further, in the data set on WI-38 (IC50 concentration, 24 h), the “mean tail DNA %” value is 4.19% and the “median tail DNA %” value came out at 1.5%. For the same molecule, in the data set with PC-3 [1], the “mean tail DNA %” value is listed as 7.37% and the “median tail DNA %” value is 1.03%. Besides, in the data set on BxPC-3 [2], the “mean tail DNA %” value was 10.9% and the “median tail DNA %” value is listed as 2.5%. Further, in the data set on PC-3 [3], the “mean number of γH2AX foci” value was 25.8 and the “median number of γH2AX foci” value was determined as 21. Also, the IC50 in the data set with BxPC-3 [4] was 0.32 ± 0.1 µM.
